The experiment concerns ACS. Briefly: coupled spectrophotometric assay of AMP formation. The class given is biochemical, Gordonia sp. NB4-1Y. Particulars: 2.5 mM ATP, 1.5 mM CoA, 5 mM MgCl2, 1 mM DTT, 50 mM potassium phosphate pH 7.5, 25 °C.
For orientation: Km means the substrate concentration at which the rate is half of its maximum. Consider `O=C(O)CCCC(F)(F)F` [1:4 FTCA, 5,5,5-trifluoropentanoic acid], for which the Km was determined as 12.5 ± 0.7 mM.
As for `CC(=O)O` [acetate], the figure is 78.3 ± 7.4 mM.
For the compound `CCCCC(=O)O` [pentanoic acid], the Km was 0.109 ± 0.011 mM.
Consider `CCC(=O)O` [propionic acid], for which the Km worked out at 1.7 ± 0.2 mM.

For the origin of these results see PMC10601079 (ACS Omega, 2023).
